# Laboratory results: patent publication US7833983B2, “Analytical method and kit thereof” (Phadia, AB, priority 2003, dated 2010)
# Several values for one entry are separate records, joined by “and”; a condition that tells them apart may be missing. Equal values may be shown once. Non-standard residues stand in square brackets, D forms with d. No end group written: not given here. Arg(Me2s) = CN=C(NC)NCCC[C@H](N)C(=O)O
# What was measured:
# [1] = tested on: anti-centromere antibodies (ACA; serum CEN); experiment: Epitope-mapping with immobilized oligopeptides (peptide arrays) probed with control sera (e.g. CEN); assay type: binding, human; details: serum 1:100
# Description: (§1) Sera (n=628) were collected from patients suffering from systemic lupus erytlhrematosus (SLE; n=176), rheumatoid arthritis (RA, n=86), Sjögren syndrome (SS, n=24); mixed connective tissue disease (MCTD, n=26), scleroderma (SSc, n=26) and polymyositis/dermatomyositis (PM/DM, n=13). All patients were classified according to the ACR-criteria for each disease (Tan et al., 1982; Arnett et al., 1988). To further assess the assay specificity, we analyzed a group of sera from patients with infection diseases (n=77) including hepatitis-C (HCV; n=30), cytomegalo (CMV; n=22) and Epstein-Barr Virus (EBV; n=25) as well as from 192 healthy blood donors. All sera were stored at −80° C. until use. For epitope-mapping a panel of five sera containing anti-Sm antibodies was used. As negative controls autoimmune sera with other antibody specificities than anti-Sm were selected.
# The published sequences of SmD1, P13641, (Rokeach et al., 1988) and SmD3, P43331, (Lehmeier et al., 1994) were used to synthesize overlapping 15 mer peptides with a pipetting robot according to the protocol described by Gausepohl and Behn (2002). The C-terminal extensions of both polypeptides were synthesized with an offset of 2 amino acids (13 amino acids overlap). […]
# [2] = pI of the peptide; assay type: physicochemical
# [3] = tested on: anti-S33 antibodies; experiment: S33-peptide ELISA (Varelisa protocol) with patient and control sera; assay type: binding, human
# Description: as §1
# Preparation of ELISA-plates. The lyophilized S33 peptide was used to prepare a stock solution of 10 μg/μl, which was stored in aliquots at −20° C. until use. Binding of the peptide to ELISA plates was carried out using 2.5 μg/ml of the peptide in coating buffer in a final volume of 120 μl per well. The coating procedure was carried out at 15° C. for 20 h. Unspecific binding sites were blocked with blocking solution. After discarding the blocking solution solid phases were dried at 37° C. for 2 h and sealed.
# The assay was performed according to the general protocol of the Varelisa® system (Pharmacia Diagnostics, Freiburg). […] The cut-off was technically set to 13 U/ml after ROC-analysis. PPVs and NPVs were calculated at different cut-off values. […]
# A 15 amino acid soluble peptide displaying highest sensitivity and specificity in the SPOT-assay (^108AARGsdRGRGMGRGNIF^122) (SEQ ID NO: 1) was synthesized for technical reasons with an additional Cys at the C-terminus. This peptide was subsequently used to develop an ELISA system based on the general protocol of the Varelisa® tests (Pharmacia, Freiburg, Germany).
# [4] = tested on: anti-Sm antibodies; experiment: Correlation study: anti-S33 ELISA versus commercially available anti-Sm antibody tests; assay type: binding, human; details: for Reactivity of control serum: suggested cut-off 13
# Procedure: Randomly selected SLE sera (n=50) and various controls (n=100) were tested using the commercially available anti-Sm antibody tests from different suppliers (Sm test A—Sm Test D) and the results were compared to the findings of the anti-S33 ELISA test.
# [5] = tested on: anti-Sm antibodies; experiment: Epitope-mapping with immobilized oligopeptides (peptide arrays) probed with anti-Sm sera; assay type: binding, human; details: for number of anti-Sm sera recognizing the peptide: panel of five anti-Sm sera (#36, #37, #31, #84, #Sm), serum 1:100, ECL detection
# Description: The published sequences of SmD1, P13641, (Rokeach et al., 1988) and SmD3, P43331, (Lehmeier et al., 1994) were used to synthesize overlapping 15 mer peptides with a pipetting robot according to the protocol described by Gausepohl and Behn (2002). The C-terminal extensions of both polypeptides were synthesized with an offset of 2 amino acids (13 amino acids overlap). Each arginine containing peptide was synthesized as three variants, with natural arginine, with sDMA or with asymmetrical dimethylarginine (asDMA) at the respective positions. Later on, a highly reactive peptide of SmD3 was synthesized with certain combinations of natural arginine and sDMA. Following completion of the peptide synthesis non-specific binding sites were blocked by over-night incubation of the membranes in blocking buffer (BB) at room temperature (RT). After one washing step membranes were incubated with serum samples at a dilution of 1:100 in BB for 2 h at RT. Unbound antibodies were removed by three washing steps. For detection peroxidase conjugated goat-anti-human IgG antibody was diluted 1:5000 in BB and incubated for 75 min (RT). Superfluous secondary antibodies were removed by three washing steps. Finally, bound antibodies were visualized using the enhanced chemoluminiscence (ECL) detection-system.
# Epitope fine-mapping of the C-terminal extensions of SmD1 and D3. To evaluate the effect of arginine-dimethylation on the antigenicity of SmD1 and SmD3 and to map relevant epitopes on both polypeptides a panel of anti-Sm sera was tested with peptide arrays (15 mer, 2 offset) covering the C-terminal region of SmD1 (P13641) and SmD3 (P43331).
# [6] = tested on: Lupus-prone mice; details: injection; peptide fused to a carrier protein; Riemekasten et al., 2001; cited from earlier work
# [7] = Rheumatic diseases (181), cut-off 13 U/ml
# [8] = randomly selected SLE sera (n = 101)
substance,measurement,setting,value
"AARG sdR GRGMGRGNIF (AARG[Arg(Me2s)]GRGMGRGNIF) [S33, SmD3 aa 108-122 mimotope peptide with a single symmetrical dimethylarginine at position 112; ELISA version with additional C-terminal Cys]",antibody binding of control sera,[1],not with the controls
same,pI,[2],> 12.88
same,Mean value,[3]; CMV (22),0.8 U/ml
same,Top value,[3]; CMV (22),3.2 U/ml
same,No. of anti-S33-positive sera,"[3]; CMV (22), cut-off 13 U/ml",0
same,Mean value,[3]; EBV (25),0.78 U/ml
same,Top value,[3]; EBV (25),3.3 U/ml
same,Mean value,[3]; HCV (30),0.42 U/ml
same,Top value,[3]; HCV (30),1.1 U/ml
same,No. of anti-S33-positive sera,"[3]; HCV (30), cut-off 13 U/ml",0
same,Mean value,[3]; Healthy individuals (192),2.2 U/ml and 2.21 U/ml
same,Top value,[3]; Healthy individuals (192),11.5 U/ml
same,No. of anti-S33-positive sera,"[3]; Healthy individuals (192), cut-off 13 U/ml",0
same,Mean value,[3]; Infectious diseases (77),0.67 U/ml
same,Top value,[3]; Infectious diseases (77),3.3 U/ml
same,No. of anti-S33-positive sera,"[3]; Infectious diseases (77), cut-off 13 U/ml",0
same,Mean value,[3]; MCTD (26),3.1 U/ml
same,Top value,[3]; MCTD (26),12.8 U/ml
same,No. of anti-S33-positive sera,"[3]; MCTD (26), cut-off 13 U/ml",0
same,Mean value,[3]; PM/DM (13),2.8 U/ml
same,Top value,[3]; PM/DM (13),9.6 U/ml
same,No. of anti-S33-positive sera,"[3]; PM/DM (13), cut-off 13 U/ml",0
same,Mean value,[3]; RA (86),1.6 U/ml
same,Top value,[3]; RA (86),24.6 U/ml
same,% of anti-S33-positive sera,"[3]; RA (86), cut-off 13 U/ml",(1.2) %
same,No. of anti-S33-positive sera,"[3]; RA (86), cut-off 13 U/ml",1
same,Mean value,[3]; Rheumatic diseases (181),2.2 U/ml
same,Top value,[3]; Rheumatic diseases (181),24.6 U/ml
same,% of anti-S33-positive sera,[3]; [7],(0.6) %
same,No. of anti-S33-positive sera,[3]; [7],1
same,Mean value,[3]; SLE (n = 176),43 U/ml and 43.0 U/ml
same,No. of anti-S33-positive sera,"[3]; SLE (n = 176), cut-off 13 U/ml",28 and 15
same,anti-S33 peptide reactivity,"[3]; SLE patient #89, anti-SmD negative",15.4 units
same,anti-S33 peptide reactivity,"[3]; SLE patient #92, anti-SmD negative",21.3 units
same,anti-S33 peptide reactivity,"[3]; SLE patient #9811, anti-SmD negative",13.9 units
same,anti-S33 peptide reactivity,"[3]; SLE patient #20627, anti-SmD negative",41.3 units
same,immunoresponse to the new Sm antigen (S33),"[3]; SLE patient, beginning of the 18 month follow-up study, inactive phase of disease",337.5 U/ml
same,Mean value,[3]; SSc (26),2.4 U/ml
same,Top value,[3]; SSc (26),4.3 U/ml
same,No. of anti-S33-positive sera,"[3]; SSc (26), cut-off 13 U/ml",0
same,reactivity range,[3]; blood donors,0.4-11.5 U/ml
same,% of control sera tested positive,"[3]; controls (n=449), cut-off 13 U/ml",0.2%
same,Mean value,[3]; pSS (24),1.9 U/ml
same,Top value,[3]; pSS (24),3.9 U/ml
same,No. of anti-S33-positive sera,"[3]; pSS (24), cut-off 13 U/ml",0
same,S33+ among sera with Aab to La (%),[3]; [8],18.2%
same,S33+ among sera with Aab to La (number),[3]; [8],4/22
same,S33+ among sera with Aab to Ro-52 (%),[3]; [8],22.7%
same,S33+ among sera with Aab to Ro-52 (number),[3]; [8],5/22
same,S33+ among sera with Aab to Ro-60 (%),[3]; [8],25%
same,S33+ among sera with Aab to Ro-60 (number),[3]; [8],12/48
same,S33+ among sera with Aab to SmBB′ (%),[3]; [8],50%
same,S33+ among sera with Aab to SmBB′ (number),[3]; [8],11/22
same,S33+ among sera with Aab to SmD (%),[3]; [8],68.8%
same,S33+ among sera with Aab to SmD (number),[3]; [8],11/16
same,S33+ among sera with Aab to U1-68 kD (%),[3]; [8],50%
same,S33+ among sera with Aab to U1-A (%),[3]; [8],48%
same,S33+ among sera with Aab to U1-A (number),[3]; [8],12/25
same,S33+ among sera with Aab to U1-C (%),[3]; [8],42.3%
same,S33+ among sera with Aab to U1-C (number),[3]; [8],11/26
same,S33+ among sera with Aab to dsDNA (%),[3]; [8],25.5%
same,S33+ among sera with Aab to dsDNA (number),[3]; [8],13/51
same,S33+ among sera with Aab to histone (%),[3]; [8],26.3%
same,S33+ among sera with Aab to histone (number),[3]; [8],10/38
same,S33+ among sera with Aab to β2-Glycoprotein (%),[3]; [8],25%
same,S33+ among sera with Aab to β2-Glycoprotein (number),[3]; [8],4/16
same,% of SLE sera positive,[4]; 50 randomly selected SLE sera,12%
same,number of SLE sera positive,[4]; 50 randomly selected SLE sera,6
same,% of controls positive,[4]; 100 controls,0%
same,number of controls positive,[4]; 100 controls,none
same,Reactivity of control serum,"[4]; serum No. 105, ID 25516, MCTD",3.0 U/ml
same,Reactivity of control serum,"[4]; serum No. 107, ID 25518, MCTD",1.0 U/ml
same,Reactivity of control serum,"[4]; serum No. 108, ID 25519, MCTD",0.0 U/ml
same,Reactivity of control serum,"[4]; serum No. 110, ID 25521, MCTD",0.5 U/ml
same,Reactivity of control serum,"[4]; serum No. 112, ID 25523, MCTD",0.0 U/ml
same,Reactivity of control serum,"[4]; serum No. 121, ID 25532, MCTD",2.6 U/ml
same,Reactivity of control serum,"[4]; serum No. 123, ID 25534, MCTD",1.1 U/ml
same,Reactivity of control serum,"[4]; serum No. 126, ID 25537, MCTD",3.2 U/ml
same,Reactivity of control serum,"[4]; serum No. 128, ID 25539, MCTD",0.7 U/ml
same,Reactivity of control serum,"[4]; serum No. 129, ID 25540, MCTD",4.1 U/ml
same,Reactivity of control serum,"[4]; serum No. 132, ID 25543, MCTD",2.4 U/ml
same,Reactivity of control serum,"[4]; serum No. 133, ID 25544, MCTD, SLE",9.9 U/ml
same,Reactivity of control serum,"[4]; serum No. 137, ID 25448, SSc",2.2 U/ml
same,Reactivity of control serum,"[4]; serum No. 145, ID 25456, MCTD",1.1 U/ml
same,number of anti-Sm sera recognizing the peptide,[5],all of the five
"AAsdRGsdRGsdRGMGsdRGNIF (AA[Arg(Me2s)]G[Arg(Me2s)]G[Arg(Me2s)]GMG[Arg(Me2s)]GNIF) [peptide no. 77, SmD3 aa 108-122 with all arginines as sDMA]",number of anti-Sm sera recognizing the peptide,[5],three out of five
same,number of anti-Sm sera recognizing the peptide,[5]; listed as SEQ ID NO: 3,Three out of five
"KREAVAGRGRGRGRG [compound 10, SmD1 array peptide; text describes glycine and DMA repeats]",binding of anti-Sm antibodies (in words),"[5]; anti-SmD sera #36, #37, #31, #84, #Sm, peptide arrays",strong reactivity
"synthetic peptide corresponding to the C-terminal extension of SmD1: literature SmD1 aa 83-119 peptide (Riemekasten et al., 1998) used in an ELISA (VEPKVKSKKREAVAGRGRGRGRGRGRGRGRGRGGPRR; UniProt P62314 83-119, looked up, fragment)",effect on the pathogenic process of Lupus-prone mice,[6],accelerate the pathogenic process
